Results taken from the NIST ThermoML archive (doi:10.1016/j.jct.2014.10.014).

Assay: mn = molality of the nth substance listed, in mol/kg
Details: 100 kPa, Liquid, Alternating current cell with electrodes

C[C@H](CCC(=O)[O-])[C@H]1CC[C@H]2[C@@H]3[C@H](O)C[C@@H]4C[C@H](O)CC[C@]4(C)[C@H]3C[C@H](O)[C@]12C.[Na+] [sodium cholate] + O
electrical conductivity [S/m]
Details | 293.15 K | 298.15 K | 303.15 K | 308.15 K | 313.15 K | 318.15 K
m1 = 0.001 | 0.0066 | 0.007 | 0.005 | 0.007 | 0.0075 | 0.0115
m1 = 0.002 | 0.0129 | 0.014 | 0.0115 | 0.014 | 0.014 | 0.0175
m1 = 0.003 | 0.019 | 0.0204 | 0.018 | 0.02 | 0.02 | 0.0235
m1 = 0.004 | 0.0254 | 0.0267 | 0.0242 | 0.0263 | 0.0265 | 0.0305
m1 = 0.005 | 0.031 | 0.0326 | 0.0308 | 0.0332 | 0.0332 | 0.0369
m1 = 0.006 | 0.0378 | 0.0386 | 0.0373 | 0.0397 | 0.0395 | 0.043
m1 = 0.007 | 0.0434 | 0.0442 | 0.0439 | 0.0454 | 0.0466 | 0.0497
m1 = 0.008 | 0.0503 | 0.0498 | 0.0503 | 0.0524 | 0.0533 | 0.0565
m1 = 0.009 | 0.0558 | 0.0562 | 0.057 | 0.0584 | 0.06 | 0.0633
m1 = 0.01 | 0.0628 | 0.063 | 0.0635 | 0.0653 | 0.0668 | 0.0705
m1 = 0.011 | 0.0689 | 0.0687 | 0.07 | 0.0735 | 0.0745 | 0.0779
m1 = 0.012 | 0.0754 | 0.0753 | 0.076 | 0.0798 | 0.0815 | 0.0855
m1 = 0.013 | 0.0827 | 0.0825 | 0.082 | 0.0861 | 0.0885 | 0.093
m1 = 0.014 | 0.0881 | 0.088 | 0.0873 | 0.0911 | 0.0939 | 0.0985
m1 = 0.015 | 0.0929 | 0.0928 | 0.093 | 0.0967 | 0.0995 | 0.104
m1 = 0.016 | 0.0985 | 0.097 | 0.0981 | 0.102 | 0.104 | 0.111
m1 = 0.017 | 0.103 | 0.101 | 0.103 | 0.108 | 0.11 | 0.117
m1 = 0.018 | 0.107 | 0.105 | 0.108 | 0.113 | 0.115 | 0.122
m1 = 0.019 | 0.111 | 0.109 | 0.113 | 0.118 | 0.12 | 0.127
m1 = 0.02 | 0.115 | 0.112 | 0.118 | 0.123 | 0.126 | 0.132

C[C@H](CCC(=O)[O-])[C@H]1CC[C@H]2[C@@H]3CC[C@@H]4C[C@H](O)CC[C@]4(C)[C@H]3C[C@H](O)[C@]12C.[Na+] [sodium deoxycholate] + O
electrical conductivity [S/m]
Details | 293.15 K | 298.15 K | 303.15 K | 308.15 K | 313.15 K | 318.15 K
m1 = 0.0005 | 0.003 | 0.0035 | 0.004 | 0.0035 | 0.0035 | 0.004
m1 = 0.001 | 0.0065 | 0.0065 | 0.007 | 0.0065 | 0.0065 | 0.007
m1 = 0.0015 | 0.0095 | 0.0095 | 0.01 | 0.0095 | 0.01 | 0.01
m1 = 0.002 | 0.0125 | 0.0125 | 0.013 | 0.0124 | 0.0128 | 0.013
m1 = 0.0025 | 0.0155 | 0.0155 | 0.016 | 0.0153 | 0.016 | 0.016
m1 = 0.003 | 0.0185 | 0.0182 | 0.0191 | 0.0185 | 0.019 | 0.019
m1 = 0.0035 | 0.021 | 0.0213 | 0.0218 | 0.022 | 0.022 | 0.022
m1 = 0.004 | 0.0242 | 0.0243 | 0.0248 | 0.025 | 0.0245 | 0.025
m1 = 0.0045 | 0.027 | 0.0275 | 0.0274 | 0.028 | 0.028 | 0.028
m1 = 0.005 | 0.03 | 0.0305 | 0.0305 | 0.031 | 0.0305 | 0.031
m1 = 0.0055 | 0.033 | 0.0335 | 0.0335 | 0.0335 | 0.0335 | 0.034
m1 = 0.006 | 0.0355 | 0.036 | 0.0358 | 0.0365 | 0.0365 | 0.037
m1 = 0.0065 | 0.038 | 0.0385 | 0.038 | 0.0385 | 0.0385 | 0.04
m1 = 0.007 | 0.0399 | 0.0405 | 0.0405 | 0.041 | 0.0405 | 0.0425
m1 = 0.0075 | 0.042 | 0.0425 | 0.043 | 0.0435 | 0.0425 | 0.045
m1 = 0.008 | 0.044 | 0.0445 | 0.0455 | 0.0455 | 0.045 | 0.0475
m1 = 0.0085 | 0.046 | 0.0465 | 0.048 | 0.048 | 0.0475 | 0.05
m1 = 0.009 | 0.048 | 0.0485 | 0.0499 | 0.05 | 0.0499 | 0.0525
m1 = 0.0095 | 0.05 | 0.051 | 0.052 | 0.0525 | 0.0519 | 0.055
m1 = 0.01 | 0.0518 | 0.053 | 0.054 | 0.055 | 0.0539 | 0.0575
